Assay results taken from the supplement of paper PMC11208160.
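Further: IS621 bridge recombinase in Escherichia coli cells against a fixed T5 target plasmid.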

Assay: recombinant UMI read abundance after kanamycin selection (control-corrected) (log10(CPM+1)); higher = more efficient recombination; extreme values may be limits of the assay; sequences stand for … in AGTGCAGAGAAAATCGGCCAGTTTTCTCTGCCTGCAGTCCGCATGCCGTGGGACCCCTTGGGTTCTAACCTGTTGCCTAGATTTATGCAGCGGACTGCCTTTCTCCCAAAGTGATAAACCGG…AGGTTGGTTTCACT; site = the 11-nt donor
How it was run: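 Values are reported as log10(CPM+1), obtained by converting sequencing counts to CPM, averaging replicates and scaling by control-derived factors. The counts came from recombinant UMIs amplified by PCR across the donor–target junction. These UMIs came from a pooled Escherichia coli screen of donor and donor-binding-loop pairs for the IS621 bridge recombinase, plated with IPTG (0.07 mM) plus kanamycin or left unselected, in two replicates each.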
For “ATGACACCATGGACCGGTTTTCCCGGTAATCCGTATTTGGT (site ATGACACCTAC)”, the “recombinant UMI read abundance (log10)” value was 0.0397. For “ATGATCCCATGGACCGGTTTTCCCGGTAATCCGTATTTGCC (site ATGATCCCTGG)”, the “recombinant UMI read abundance (log10)” value was 0. For “ATGCACGCATGGACCGGTTTTCCCGGTAATCCGTATTTGGG (site AAGCACGCTCC)”, the “recombinant UMI read abundance (log10)” value was 0.017. In the case of “ATGCACGCATGGACCGGTTTTCCCGGTAATCCGTATTTGGG (site ACGCACGCTCC)”, the “recombinant UMI read abundance (log10)” value is reported as 0.0179. With “ATGCACGCATGGACCGGTTTTCCCGGTAATCCGTATTTGGG (site AGGCACGCTCC)” the “recombinant UMI read abundance (log10)” value was 0.0274. For “ATGCACGCATGGACCGGTTTTCCCGGTAATCCGTATTTGGG (site ATGCACGCTCC)”, the “recombinant UMI read abundance (log10)” value was 0.239. With “ATGCAGCCATGGACCGGTTTTCCCGGTAATCCGTATTTGAG (site ATGCAGCCTCT)” the “recombinant UMI read abundance (log10)” value was 0.00247. In the case of “ATGCCCGCATGGACCGGTTTTCCCGGTAATCCGTATTTGCA (site ATGCCCGCTTG)”, the “recombinant UMI read abundance (log10)” value is reported as 2.01. With “ATGCCGACATGGACCGGTTTTCCCGGTAATCCGTATTTGCA (site ATGCCGACTTG)” the “recombinant UMI read abundance (log10)” value was 1.91. For “ATGCGAGCATGGACCGGTTTTCCCGGTAATCCGTATTTGCT (site ATGCGAGCTAG)”, the “recombinant UMI read abundance (log10)” value was 2.5. For “ATGCTTGCATGGACCGGTTTTCCCGGTAATCCGTATTTGCT (site ATGCTTGCTAG)”, the “recombinant UMI read abundance (log10)” value was 0.679. With “ATGGAAACATGGACCGGTTTTCCCGGTAATCCGTATTTGCA (site ATGGAAACTTG)” the “recombinant UMI read abundance (log10)” value was 2.32. In the case of “ATGGAAACATGGACCGGTTTTCCCGGTAATCCGTATTTGCA (site CTGGAAACTTG)”, the “recombinant UMI read abundance (log10)” value is reported as 1.6. For “ATGGAAACATGGACCGGTTTTCCCGGTAATCCGTATTTGCA (site GTGGAAACTTG)”, the “recombinant UMI read abundance (log10)” value was 0. In the case of “ATGGAAACATGGACCGGTTTTCCCGGTAATCCGTATTTGCA (site TTGGAAACTTG)”, the “recombinant UMI read abundance (log10)” value is reported as 0.684. With “ATGGCATCATGGACCGGTTTTCCCGGTAATCCGTATTTGCG (site ATGGCATCTCG)” the “recombinant UMI read abundance (log10)” value was 2.06. With “ATGGCATCATGGACCGGTTTTCCCGGTAATCCGTATTTGCT (site ATGGCATCTAG)” the “recombinant UMI read abundance (log10)” value was 1.83. In the case of “ATGGCCGCATGGACCGGTTTTCCCGGTAATCCGTATTTGGC (site ATGGCCGCTGC)”, the “recombinant UMI read abundance (log10)” value is reported as 2.53. With “ATGGTCCCATGGACCGGTTTTCCCGGTAATCCGTATTTGAC (site ATGGTCCCTGT)” the “recombinant UMI read abundance (log10)” value was 1.87. For “ATGGTCGCATGGACCGGTTTTCCCGGTAATCCGTATTTGAC (site ATGGTCGCTGT)”, the “recombinant UMI read abundance (log10)” value was 3.13. With “ATGTACACATGGACCGGTTTTCCCGGTAATCCGTATTTGAG (site ATGTACACTCT)” the “recombinant UMI read abundance (log10)” value was 1.6. For “ATGTAGGCATGGACCGGTTTTCCCGGTAATCCGTATTTGGT (site ATGTAGGCTAC)”, the “recombinant UMI read abundance (log10)” value was 1.27. With “ATGTAGGCATGGACCGGTTTTCCCGGTAATCCGTATTTGGT (site ATGTAGGCTCC)” the “recombinant UMI read abundance (log10)” value was 0.0125. In the case of “ATGTAGGCATGGACCGGTTTTCCCGGTAATCCGTATTTGGT (site ATGTAGGCTGC)”, the “recombinant UMI read abundance (log10)” value is reported as 1.73. With “ATGTAGGCATGGACCGGTTTTCCCGGTAATCCGTATTTGGT (site ATGTAGGCTTC)” the “recombinant UMI read abundance (log10)” value was 0.0176. For “ATGTCGCCATGGACCGGTTTTCCCGGTAATCCGTATTTGCC (site ATGTCGCCTGG)”, the “recombinant UMI read abundance (log10)” value was 0. For “ATGTCGGCATGGACCGGTTTTCCCGGTAATCCGTATTTGTC (site ATGTCGGCTGA)”, the “recombinant UMI read abundance (log10)” value was 2.23. With “ATGTGGACATGGACCGGTTTTCCCGGTAATCCGTATTTGAC (site ATGTGGACTGT)” the “recombinant UMI read abundance (log10)” value was 2.94. With “ATGTGGGCATGGACCGGTTTTCCCGGTAATCCGTATTTGGC (site ATGTAGGCTGC)” the “recombinant UMI read abundance (log10)” value was 2.78. In the case of “ATGTGGGCATGGACCGGTTTTCCCGGTAATCCGTATTTGGC (site ATGTCGGCTGC)”, the “recombinant UMI read abundance (log10)” value is reported as 0. For “ATGTGGGCATGGACCGGTTTTCCCGGTAATCCGTATTTGGC (site ATGTGGGCTGC)”, the “recombinant UMI read abundance (log10)” value was 3.01. For “ATGTGGGCATGGACCGGTTTTCCCGGTAATCCGTATTTGGC (site ATGTTGGCTGC)”, the “recombinant UMI read abundance (log10)” value was 0.0921. In the case of “ATGTGTGCATGGACCGGTTTTCCCGGTAATCCGTATTTGAC (site ATGTGTGCTGT)”, the “recombinant UMI read abundance (log10)” value is reported as 2.78. In the case of “ATGTTACCATGGACCGGTTTTCCCGGTAATCCGTATTTGGT (site ATGTTACCTAC)”, the “recombinant UMI read abundance (log10)” value is reported as 0.0171. For “ATTACGGCATGGACCGGTTTTCCCGGTAATCCGTATTTGGA (site ATTACGGCTTC)”, the “recombinant UMI read abundance (log10)” value was 0.269. In the case of “ATTACTTCATGGACCGGTTTTCCCGGTAATCCGTATTTGGG (site ATTACTTCTCC)”, the “recombinant UMI read abundance (log10)” value is reported as 0.434. For “ATTAGAACATGGACCGGTTTTCCCGGTAATCCGTATTTGGC (site ATTAGAACTGC)”, the “recombinant UMI read abundance (log10)” value was 1.83. In the case of “ATTAGAACATGGACCGGTTTTCCCGGTAATCCGTATTTGGC (site CTTAGAACTGC)”, the “recombinant UMI read abundance (log10)” value is reported as 1.73. In the case of “ATTAGAACATGGACCGGTTTTCCCGGTAATCCGTATTTGGC (site GTTAGAACTGC)”, the “recombinant UMI read abundance (log10)” value is reported as 0. For “ATTAGAACATGGACCGGTTTTCCCGGTAATCCGTATTTGGC (site TTTAGAACTGC)”, the “recombinant UMI read abundance (log10)” value was 1.19. For “ATTAGTGCATGGACCGGTTTTCCCGGTAATCCGTATTTGGT (site AATAGTGCTAC)”, the “recombinant UMI read abundance (log10)” value was 0.125. With “ATTAGTGCATGGACCGGTTTTCCCGGTAATCCGTATTTGGT (site ACTAGTGCTAC)” the “recombinant UMI read abundance (log10)” value was 0.675. For “ATTAGTGCATGGACCGGTTTTCCCGGTAATCCGTATTTGGT (site AGTAGTGCTAC)”, the “recombinant UMI read abundance (log10)” value was 0.243. With “ATTAGTGCATGGACCGGTTTTCCCGGTAATCCGTATTTGGT (site ATTAGTGCTAC)” the “recombinant UMI read abundance (log10)” value was 1.05. In the case of “ATTCCGGCATGGACCGGTTTTCCCGGTAATCCGTATTTGCT (site ATTCCGGCTAG)”, the “recombinant UMI read abundance (log10)” value is reported as 0.0043. With “ATTCGAACATGGACCGGTTTTCCCGGTAATCCGTATTTGTT (site ATTCGAACTAA)” the “recombinant UMI read abundance (log10)” value was 0.18. In the case of “ATTCGTGCATGGACCGGTTTTCCCGGTAATCCGTATTTGAT (site ATTCGTGCTAT)”, the “recombinant UMI read abundance (log10)” value is reported as 0.866. With “ATTCGTGCATGGACCGGTTTTCCCGGTAATCCGTATTTGTA (site ATTCGTGCTTA)” the “recombinant UMI read abundance (log10)” value was 0.657. With “ATTCGTGCATGGACCGGTTTTCCCGGTAATCCGTATTTGTG (site ATTCGTGCTCA)” the “recombinant UMI read abundance (log10)” value was 0.309. For “ATTCTTACATGGACCGGTTTTCCCGGTAATCCGTATTTGGT (site ATTCTTACTAC)”, the “recombinant UMI read abundance (log10)” value was 0.37. In the case of “ATTGTATCATGGACCGGTTTTCCCGGTAATCCGTATTTGAG (site ATTGTATCTCT)”, the “recombinant UMI read abundance (log10)” value is reported as 1.59. For “ATTTAAACATGGACCGGTTTTCCCGGTAATCCGTATTTGAC (site ATTTAAACTGT)”, the “recombinant UMI read abundance (log10)” value was 1.18. For “ATTTAGACATGGACCGGTTTTCCCGGTAATCCGTATTTGGT (site ATTAAGACTAC)”, the “recombinant UMI read abundance (log10)” value was 0.513. With “ATTTAGACATGGACCGGTTTTCCCGGTAATCCGTATTTGGT (site ATTCAGACTAC)” the “recombinant UMI read abundance (log10)” value was 0.475. With “ATTTAGACATGGACCGGTTTTCCCGGTAATCCGTATTTGGT (site ATTGAGACTAC)” the “recombinant UMI read abundance (log10)” value was 0.0177. In the case of “ATTTAGACATGGACCGGTTTTCCCGGTAATCCGTATTTGGT (site ATTTAGACTAC)”, the “recombinant UMI read abundance (log10)” value is reported as 0.955. In the case of “ATTTAGGCATGGACCGGTTTTCCCGGTAATCCGTATTTGGC (site ATATAGGCTGC)”, the “recombinant UMI read abundance (log10)” value is reported as 1.64. With “ATTTAGGCATGGACCGGTTTTCCCGGTAATCCGTATTTGGC (site ATCTAGGCTGC)” the “recombinant UMI read abundance (log10)” value was 0.928. For “ATTTAGGCATGGACCGGTTTTCCCGGTAATCCGTATTTGGC (site ATGTAGGCTGC)”, the “recombinant UMI read abundance (log10)” value was 0.42. In the case of “ATTTAGGCATGGACCGGTTTTCCCGGTAATCCGTATTTGGC (site ATTTAGGCTGC)”, the “recombinant UMI read abundance (log10)” value is reported as 1.93. For “ATTTATTCATGGACCGGTTTTCCCGGTAATCCGTATTTGAG (site ATTTATTCTCT)”, the “recombinant UMI read abundance (log10)” value was 1.61. For “ATTTCACCATGGACCGGTTTTCCCGGTAATCCGTATTTGGC (site ATTTCACCTGC)”, the “recombinant UMI read abundance (log10)” value was 0. With “ATTTCTACATGGACCGGTTTTCCCGGTAATCCGTATTTGTC (site ATTTCTACTGA)” the “recombinant UMI read abundance (log10)” value was 0.00552. In the case of “ATTTGAGCATGGACCGGTTTTCCCGGTAATCCGTATTTGCG (site ATTTGAGCTCG)”, the “recombinant UMI read abundance (log10)” value is reported as 0.336. For “ATTTGTTCATGGACCGGTTTTCCCGGTAATCCGTATTTGGA (site ATTTGTTCTTC)”, the “recombinant UMI read abundance (log10)” value was 1.4. In the case of “CAAAAGCCATGGACCGGTTTTCCCGGTAATCCGTATTTGTC (site CAAAAGCCTGA)”, the “recombinant UMI read abundance (log10)” value is reported as 0. For “CAAAATACATGGACCGGTTTTCCCGGTAATCCGTATTTGGC (site CAAAATACTGC)”, the “recombinant UMI read abundance (log10)” value was 0. In the case of “CAAACACCATGGACCGGTTTTCCCGGTAATCCGTATTTGAC (site CAAACACCTGT)”, the “recombinant UMI read abundance (log10)” value is reported as 0.00914. With “CAAACGACATGGACCGGTTTTCCCGGTAATCCGTATTTGTT (site CAAACGACTAA)” the “recombinant UMI read abundance (log10)” value was 1.41. With “CAAAGCTCATGGACCGGTTTTCCCGGTAATCCGTATTTGAA (site CAAAGCTCTTT)” the “recombinant UMI read abundance (log10)” value was 3.18. With “CAAAGCTCATGGACCGGTTTTCCCGGTAATCCGTATTTGAA (site CAACGCTCTTT)” the “recombinant UMI read abundance (log10)” value was 0.0122. With “CAAAGCTCATGGACCGGTTTTCCCGGTAATCCGTATTTGAA (site CAAGGCTCTTT)” the “recombinant UMI read abundance (log10)” value was 0.579. With “CAAAGCTCATGGACCGGTTTTCCCGGTAATCCGTATTTGAA (site CAATGCTCTTT)” the “recombinant UMI read abundance (log10)” value was 0.0194. For “CAAATACCATGGACCGGTTTTCCCGGTAATCCGTATTTGAC (site CAAATACCTGT)”, the “recombinant UMI read abundance (log10)” value was 0. In the case of “CAAATCCCATGGACCGGTTTTCCCGGTAATCCGTATTTGGA (site CAAATCCCTTC)”, the “recombinant UMI read abundance (log10)” value is reported as 0.334.
